Converted amounts (≈) assume the structure as drawn. One block for each compound: values may come before it.
Columns and labels:
Test in all cases: ≥ marks a high value that may be exact or a test limit, other limits are often not marked, values filed in µg/mL are converted to µM
Escherichia coli HB101 = test system: Escherichia coli HB101
[1] = test system: Leishmania major MHOM/IL/67/JERICHO-II
[2] = test system: Staphylococcus aureus Cowan 1
[3] = test system: Escherichia coli ATCC 35218
[4] = test system: Klebsiella pneumoniae ATCC 13883
[5] = test system: Acinetobacter baumannii ATCC 19606
Bacillus megaterium = test system: Bacillus megaterium
Escherichia coli ML-35p = test system: Escherichia coli ML-35p
[6] = test system: Staphylococcus aureus ST1065
[7] = test system: Candida albicans ATCC 90028
[8] = test system: Staphylococcus aureus ATCC 25923
[9] = test system: Staphylococcus aureus ATCC BAA-44
[10] = test system: Staphylococcus aureus ATCC 43300
Saccharomyces cerevisiae = test system: Saccharomyces cerevisiae
[11] = test system: Salmonella enterica subsp. enterica serovar Enteritidis
[12] = test system: Enterococcus faecalis ATCC 29212
[13] = test system: Escherichia coli ATCC 25922
[14] = test system: Candida parapsilosis ATCC 22019
[15] = test system: Pseudomonas aeruginosa ATCC 27853
[16] = test system: Staphylococcus epidermidis ATCC 14490
[17] = test system: Candida tropicalis PCM 2681
[18] = test system: Klebsiella pneumoniae ATCC 200603
[19] = test system: Pseudomonas aeruginosa ATCC 9027
[20] = test system: Bacillus subtilis ATCC 6633
[21] = test system: Candida albicans ATCC 10231
[22] = test system: Mycobacterium tuberculosis H37Rv
[23] = test system: Mycobacterium tuberculosis 411
[24] = test system: Mycobacterium tuberculosis CSU87
[25] = test system: Mycobacterium tuberculosis 212
[26] = test system: Mycobacterium tuberculosis 173
[27] = test system: Micrococcus luteus ATCC 9341
[28] = test system: Escherichia coli ATCC 2592
[29] = test system: Staphylococcus aureus 1550
[30] = test system: Staphylococcus aureus ATCC 6538
[31] = test system: Salmonella enterica subsp. arizonae
[32] = test system: Enterobacter cloacae beta-12
[33] = test system: Serratia marcescens ATCC 4112
[34] = test system: Alcaligenes faecalis ATCC 8750
Escherichia coli SBS 363 = test system: Escherichia coli SBS 363
Escherichia coli D31 = test system: Escherichia coli D31
Salmonella sp. = test system: Salmonella sp.
[35] = test system: Streptococcus sanguinis ATCC 10556
[36] = test system: Streptococcus sobrinus ATCC 6715
[37] = test system: Streptococcus mutans UA159

Structure (SMILES): CSCC[C@H](NC(=O)[C@@H](NC(=O)CNC(=O)[C@H](CC(C)C)NC(=O)[C@H](CCCCN)NC(=O)[C@H](CCCCN)NC(=O)[C@H](CC(C)C)NC(=O)[C@H](CCSC)NC(=O)[C@@H](NC(=O)[C@H](CCCCN)NC(=O)[C@H](Cc1c[nH]c2ccccc12)NC(=O)[C@H](CC(C)C)NC(=O)[C@H](C)N)[C@@H](C)O)[C@@H](C)O)C(N)=O [ALWKTMLKKLGTM]
- MIC (Escherichia coli HB101): ≥ 50.6 µM
- MIC [1]: ≥ 50.6 µM
- MIC [2]: ≥ 50.6 µM

Structure (SMILES): CC[C@H](C)[C@H](N)C(=O)N[C@H]1CSSC[C@@H](C(=O)N[C@H](C(=O)O)[C@@H](C)CC)NC(=O)[C@H](Cc2cnc[nH]2)NC(=O)[C@H](Cc2cnc[nH]2)NC1=O [ICHHCI]
- MIC [16]: ≥ 706 µM
- MIC [17]: ≥ 706 µM
- MIC [18]: ≥ 706 µM
- MIC [19]: > 706 µM
- MIC [8]: > 706 µM
- MIC [13]: > 706 µM
- MIC [20]: ≥ 706 µM
- MIC [21]: > 706 µM

Structure (SMILES): CC[C@H](C)[C@H](N)C(=O)N[C@@H](CC(C)C)C(=O)N[C@@H](CC(C)C)C(=O)N[C@@H](CCCCN)C(=O)N[C@@H](CCCCN)C(=O)N[C@@H](CC(C)C)C(=O)N[C@@H](CC(C)C)C(=O)N[C@@H](CCCCN)C(=O)N[C@@H](CCCCN)C(=O)N[C@H](C(N)=O)[C@@H](C)CC [ILLKKLLKKI]
- MIC [22]: ≥ 413 µM
- MIC [23]: ≥ 207 µM
- MIC [24]: ≥ 207 µM
- MIC [25]: ≥ 413 µM
- MIC [26]: ≥ 413 µM

Structure (SMILES): NCCCC[C@H](NC(=O)[C@H](Cc1c[nH]c2ccccc12)NC(=O)[C@H](CCCCN)NC(=O)[C@H](CCCCN)NC(=O)[C@H](Cc1ccccc1)NC(=O)[C@H](Cc1ccccc1)NC(=O)[C@H](CCCCN)NC(=O)[C@H](CCCCN)NC(=O)[C@H](Cc1ccccc1)NC(=O)[C@H](Cc1ccccc1)NC(=O)[C@H](CCCCN)NC(=O)[C@H](Cc1ccccc1)NC(=O)[C@@H](N)Cc1c[nH]c2ccccc12)C(=O)O [WFKFFKKFFKKWK]
- MIC [35]: 4.22 µM (≈ 8 µg/mL)
- MIC [36]: 4.22 µM (≈ 8 µg/mL)
- MIC [37]: 4.22 µM (≈ 8 µg/mL)

Other lines, results leading:

- MIC [3]: ≥ 50 µM
- MIC [4]: ≥ 100 µM
- MIC [5]: 25 µM (≈ 41.4 µg/mL)
- MIC (Bacillus megaterium): 1.56 µM (≈ 2.59 µg/mL)
- MIC (Escherichia coli ML-35p): 25 µM (≈ 41.4 µg/mL)
- MIC [6]: 6.25 µM (≈ 10.4 µg/mL)
- MIC [7]: ≥ 100 µM
- MIC [8]: 6.25 µM (≈ 10.4 µg/mL)
- MIC [9]: 6.25 µM (≈ 10.4 µg/mL)
- MIC [10]: 6.25 µM (≈ 10.4 µg/mL)
- MIC (Saccharomyces cerevisiae): 25 µM (≈ 41.4 µg/mL)
- MIC [11]: ≥ 200 µM
- MIC [12]: 25 µM (≈ 41.4 µg/mL)
- MIC [13]: 5 µM (≈ 8.29 µg/mL)
- MIC [14]: ≥ 200 µM
- MIC [15]: > 200 µM
Structure (SMILES): CC[C@H](C)[C@H](NC(=O)CNC(=O)[C@H](C)NC(=O)[C@H](CC(C)C)NC(=O)[C@H](C)NC(=O)[C@H](C)NC(=O)[C@@H]1CCCN1C(=O)[C@H](CC(C)C)NC(=O)[C@@H](N)Cc1ccccc1)C(=O)NCC(=O)NCC(=O)N[C@H](C(=O)N[C@@H](CC(C)C)C(=O)NCC(=O)N[C@@H](CCCCN)C(=O)N[C@@H](CC(C)C)C(=O)N[C@@H](Cc1ccccc1)C(N)=O)[C@@H](C)CC [FLPAALAGIGGILGKLF]

- MIC [27]: 6.35 µM (≈ 8 µg/mL)
- MIC [28]: 17.5 µM (≈ 22 µg/mL)
- MIC [19]: 7.94 µM (≈ 10 µg/mL)
- MIC [29]: 19.8 µM (≈ 25 µg/mL)
- MIC [30]: 9.92 µM (≈ 12.5 µg/mL)
Structure (SMILES): CC(C)[C@H](NC(=O)[C@H](CCCCN)NC(=O)[C@H](Cc1ccccc1)NC(=O)[C@@H](NC(=O)[C@@H](NC(=O)[C@H](CCCCN)NC(=O)[C@@H](N)CCCCN)C(C)C)C(C)C)C(=O)N[C@@H](CCCCN)C(=O)N[C@@H](Cc1ccccc1)C(=O)N[C@@H](Cc1cnc[nH]1)C(=O)O [KKVVFKVKFH]

- MIC [31]: 6.26 µM (≈ 5.8 µg/mL)
- MIC [32]: 3.13 µM (≈ 2.9 µg/mL)
- MIC [33]: 6.26 µM (≈ 5.8 µg/mL)
- MIC [34]: 6.26 µM (≈ 5.8 µg/mL)
- MIC (Escherichia coli SBS 363): 6.26 µM (≈ 5.8 µg/mL)
- MIC (Escherichia coli D31): 6.26 µM (≈ 5.8 µg/mL)
- MIC [15]: 6.26 µM (≈ 5.8 µg/mL)
- MIC (Salmonella sp.): 6.26 µM (≈ 5.8 µg/mL)
Structure (SMILES): CC(C)[C@H](NC(=O)[C@H](C)NC(=O)[C@@H]1CCCN1C(=O)[C@H](Cc1ccc(O)cc1)NC(=O)[C@@H](N)CCCN=C(N)N)C(=O)NCC(=O)N[C@@H](Cc1ccc(O)cc1)C(=O)N[C@H](C(=O)O)[C@@H](C)O [RYPAVGYT]
